# Assay results taken from patent US20260001928A1 (CORTERIA PHARMACEUTICALS, priority 2022, published 2026).
# *1 amine or outer side, *2 acyl side, *3 side chain or, on linkers, in order; H or OH if unused. Where a SMILES comes first, the peptide text is derived from it. Side-chain parts run from the residue outwards. [ ]: non-standard residue; d: D form. The star is where a group is joined. C20 diacid = O=C(O)CCCCCCCCCCCCCCCCCCC(=O)*; γGlu = O=C(O)[C@H](CCC(=O)[*:2])N[*:1]; NMeI = CC[C@H](C)[C@H](NC)C(=O)O; Aib = CC(C)(N)C(=O)O
# Tested on: human LAD2 cells
# Assay type: cell-based
# How it was run: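 Mast cell degranulation: cells exposed to peptides for 30 min at final concentrations from 50, 100 or 300 down to 0.1 or 0.001 μM, with 0.5% DMSO where used, in biological duplicates. β-hexosaminidase release was read with a fluorogenic 4-methylumbelliferyl substrate as supernatant/(supernatant + Triton-lysed pellet) × 100. EC50 came from a 4-parameter sigmoidal fit.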
row,EC50 [µM],SMILES
1,> 300,CC[C@H](C)[C@H](NC(C)=O)C(=O)N[C@H](C(=O)N[C@@H](CC(C)C)C(=O)N[C@@H](CO)C(=O)N[C@@H](CC(C)C)C(=O)N[C@@H](CC(=O)O)C(=O)N[C@@H](C(=O)N1CCC[C@H]1C(=O)N[C@H](C(=O)N[C@@H](CCCCN)C(=O)N[C@@H](CC(C)C)C(=O)N[C@@H](CCCCNC(=O)CC[C@H](NC(=O)CCCCCCCCCCCCCCCCCCC(=O)O)C(=O)O)C(=O)N[C@@H](CCCCN)C(=O)N[C@H](C(=O)N[C@@H](CC(C)C)C(=O)N[C@@H](CC(C)C)C(=O)N[C@@H](CCC(=O)O)C(=O)N[C@@H](CCC(N)=O)C(=O)N[C@@H](CCC(=O)O)C(=O)N[C@@H](CCCCN)C(=O)N[C@@H](CCC(N)=O)C(=O)N[C@@H](CCCCN)C(=O)N[C@@H](C)C(=O)N[C@@H](CCC(N)=O)C(=O)N[C@@H](CCCNC(=N)N)C(=O)N[C@@H](CCC(=O)O)C(=O)N[C@@H](CCC(N)=O)C(=O)N[C@@H](C)C(=O)N[C@@H](CCC(=O)O)C(=O)N[C@H](C(=O)N[C@@H](CC(N)=O)C(=O)NC(C)(C)C(=O)N[C@@H](CCC(N)=O)C(=O)N[C@H](C(=O)N[C@@H](CC(C)C)C(=O)N[C@@H](C)C(=O)N[C@@H](CCC(N)=O)C(=O)N[C@H](C(N)=O)C(C)C)[C@@H](C)CC)[C@@H](C)O)[C@@H](C)CC)[C@@H](C)CC)C(C)C)C(C)C [Cmpd 212] (Ac-IVLSLD[dV]PIKLK([γGlu-C20 diacid])KILLEQEKQKAQREQAETN[Aib]QILAQV-NH2)
2,> 300,CC[C@H](C)[C@H](NC(C)=O)C(=O)N[C@H](C(=O)N[C@@H](CC(C)C)C(=O)N[C@@H](CO)C(=O)N[C@@H](CC(C)C)C(=O)N[C@@H](CC(=O)O)C(=O)N[C@@H](C(=O)N1CCC[C@H]1C(=O)N[C@H](C(=O)N[C@@H](CCCCN)C(=O)N[C@@H](CC(C)C)C(=O)N[C@@H](CCCCNC(=O)CC[C@H](NC(=O)CCCCCCCCCCCCCCCCCCC(=O)O)C(=O)O)C(=O)N[C@@H](CCCCN)C(=O)N[C@H](C(=O)N[C@@H](CC(C)C)C(=O)N[C@@H](CC(C)C)C(=O)N[C@@H](CCC(=O)O)C(=O)N[C@@H](CCC(N)=O)C(=O)N[C@@H](CCC(=O)O)C(=O)N[C@@H](CCCCN)C(=O)N[C@@H](CCC(N)=O)C(=O)N[C@@H](CCCCN)C(=O)N[C@@H](CCC(=O)O)C(=O)N[C@@H](CCC(N)=O)C(=O)N[C@@H](CCCNC(=N)N)C(=O)N[C@@H](CCC(=O)O)C(=O)N[C@@H](CCC(N)=O)C(=O)N[C@@H](C)C(=O)N[C@@H](CCC(=O)O)C(=O)N[C@H](C(=O)N[C@@H](CC(N)=O)C(=O)NC(C)(C)C(=O)N[C@@H](CCC(N)=O)C(=O)N[C@H](C(=O)N[C@@H](CC(C)C)C(=O)N[C@@H](C)C(=O)N[C@@H](CCC(N)=O)C(=O)N[C@H](C(N)=O)C(C)C)[C@@H](C)CC)[C@@H](C)O)[C@@H](C)CC)[C@@H](C)CC)C(C)C)C(C)C [Cmpd 213] (Ac-IVLSLD[dV]PIKLK([γGlu-C20 diacid])KILLEQEKQKEQREQAETN[Aib]QILAQV-NH2)
3,> 100,CC[C@H](C)[C@H](NC)C(=O)N[C@H](C(=O)N[C@@H](CC(C)C)C(=O)N[C@@H](CO)C(=O)N[C@@H](CC(C)C)C(=O)N[C@@H](CC(=O)O)C(=O)N[C@@H](C(=O)N1CCC[C@H]1C(=O)N[C@H](C(=O)N[C@@H](CCCCN)C(=O)N[C@@H](CC(C)C)C(=O)N[C@@H](CCCCNC(=O)CC[C@H](NC(=O)CCCCCCCCCCCCCCCCCCC(=O)O)C(=O)O)C(=O)N[C@@H](CCCCN)C(=O)N[C@H](C(=O)N[C@@H](CC(C)C)C(=O)N[C@@H](CC(C)C)C(=O)N[C@@H](CCC(=O)O)C(=O)N[C@@H](CCC(N)=O)C(=O)N[C@@H](CCC(=O)O)C(=O)N[C@@H](CCCCN)C(=O)N[C@@H](CCC(N)=O)C(=O)N[C@@H](CCCCN)C(=O)NC(C)(C)C(=O)N[C@@H](CCC(N)=O)C(=O)N[C@@H](CCCNC(=N)N)C(=O)N[C@@H](CCC(=O)O)C(=O)N[C@@H](CCC(N)=O)C(=O)N[C@@H](C)C(=O)N[C@@H](CCC(=O)O)C(=O)N[C@H](C(=O)N[C@@H](CC(N)=O)C(=O)NC(C)(C)C(=O)N[C@@H](CCC(N)=O)C(=O)N[C@H](C(=O)N[C@@H](CC(C)C)C(=O)N[C@@H](C)C(=O)N[C@@H](CCC(N)=O)C(=O)N[C@H](C(N)=O)C(C)C)[C@@H](C)CC)[C@@H](C)O)[C@@H](C)CC)[C@@H](C)CC)C(C)C)C(C)C [Cmpd 215] (H-[NMeI]VLSLD[dV]PIKLK([γGlu-C20 diacid])KILLEQEKQK[Aib]QREQAETN[Aib]QILAQV-NH2)
4,> 300,CC[C@H](C)[C@H](NC)C(=O)N[C@H](C(=O)N[C@@H](CC(C)C)C(=O)N[C@@H](CO)C(=O)N[C@@H](CC(C)C)C(=O)N[C@@H](CC(=O)O)C(=O)N[C@@H](C(=O)N1CCC[C@H]1C(=O)N[C@H](C(=O)N[C@@H](CCCCN)C(=O)N[C@@H](CC(C)C)C(=O)N[C@@H](CCCCNC(=O)CC[C@H](NC(=O)CCCCCCCCCCCCCCCCCCC(=O)O)C(=O)O)C(=O)N[C@@H](CCCCN)C(=O)N[C@H](C(=O)N[C@@H](CC(C)C)C(=O)N[C@@H](CC(C)C)C(=O)N[C@@H](CCC(=O)O)C(=O)N[C@@H](CCC(N)=O)C(=O)N[C@@H](CCC(=O)O)C(=O)N[C@@H](CCCCN)C(=O)N[C@@H](CCC(N)=O)C(=O)N[C@@H](CCCCN)C(=O)N[C@@H](C)C(=O)N[C@@H](CCC(N)=O)C(=O)N[C@@H](CCCNC(=N)N)C(=O)N[C@@H](CCC(=O)O)C(=O)N[C@@H](CCC(N)=O)C(=O)N[C@@H](C)C(=O)N[C@@H](CCC(=O)O)C(=O)N[C@H](C(=O)N[C@@H](CC(N)=O)C(=O)NC(C)(C)C(=O)N[C@@H](CCC(N)=O)C(=O)N[C@H](C(=O)N[C@@H](CC(C)C)C(=O)N[C@@H](C)C(=O)N[C@@H](CCC(N)=O)C(=O)N[C@H](C(N)=O)C(C)C)[C@@H](C)CC)[C@@H](C)O)[C@@H](C)CC)[C@@H](C)CC)C(C)C)C(C)C [Cmpd 217] (H-[NMeI]VLSLD[dV]PIKLK([γGlu-C20 diacid])KILLEQEKQKAQREQAETN[Aib]QILAQV-NH2)
5,> 300,CC[C@H](C)[C@H](NC)C(=O)N[C@H](C(=O)N[C@@H](CC(C)C)C(=O)N[C@@H](CO)C(=O)N[C@@H](CC(C)C)C(=O)N[C@@H](CC(=O)O)C(=O)N[C@@H](C(=O)N1CCC[C@H]1C(=O)N[C@H](C(=O)N[C@@H](CCCCN)C(=O)N[C@@H](CC(C)C)C(=O)N[C@@H](CCCCNC(=O)CC[C@H](NC(=O)CCCCCCCCCCCCCCCCCCC(=O)O)C(=O)O)C(=O)N[C@@H](CCCCN)C(=O)N[C@H](C(=O)N[C@@H](CC(C)C)C(=O)N[C@@H](CC(C)C)C(=O)N[C@@H](CCC(=O)O)C(=O)N[C@@H](CCC(N)=O)C(=O)N[C@@H](CCC(=O)O)C(=O)N[C@@H](CCCCN)C(=O)N[C@@H](CCC(N)=O)C(=O)N[C@@H](CCCCN)C(=O)N[C@@H](CCC(=O)O)C(=O)N[C@@H](CCC(N)=O)C(=O)N[C@@H](CCCNC(=N)N)C(=O)N[C@@H](CCC(=O)O)C(=O)N[C@@H](CCC(N)=O)C(=O)N[C@@H](C)C(=O)N[C@@H](CCC(=O)O)C(=O)N[C@H](C(=O)N[C@@H](CC(N)=O)C(=O)NC(C)(C)C(=O)N[C@@H](CCC(N)=O)C(=O)N[C@H](C(=O)N[C@@H](CC(C)C)C(=O)N[C@@H](C)C(=O)N[C@@H](CCC(N)=O)C(=O)N[C@H](C(N)=O)C(C)C)[C@@H](C)CC)[C@@H](C)O)[C@@H](C)CC)[C@@H](C)CC)C(C)C)C(C)C [Cmpd 218] (H-[NMeI]VLSLD[dV]PIKLK([γGlu-C20 diacid])KILLEQEKQKEQREQAETN[Aib]QILAQV-NH2)
